Biological target: T1, human histamine H4 receptor (Homo sapiens, UniProt Q9H3N8)
T1 construct: expressed in transfected cells; host or cells: SK-N-MC cells or COS7 cells, transiently transfected; cell membranes used
Experiment: Binding assay on recombinant human histamine H4 receptor (3H-histamine displacement)
Conditions: competition binding with 3H-histamine; membranes of SK-N-MC or COS7 cells expressing human H4 receptor; Cheng-Prusoff, KD 5 nM, ligand 5 nM
Method: SK—N-MC cells or COS7 cells were transiently transfected with pH4R and grown in 150 cm^2 tissue culture dishes. Cells were washed with saline solution, scraped with a cell scraper and collected by centrifugation (1000 rpm, 5 min). Cell membranes were prepared by homogenization of the cell pellet in 20 mM Tris-HCl with a polytron tissue homogenizer for 10 s at high speed. Homogenate was centrifuged at 1000 rpm for 5 min at 4° C. The supernatant was then collected and centrifuged at 20,000×g for 25 min at 4° C. The final pellet was resuspended in 50 mM Tris-HCl. Cell membranes were incubated with ^3H-histamine (5-70 nM) in the presence or absence of excess histamine (10,000 nM). Incubation occurred at room temperature for 45 min. Membranes were harvested by rapid filtration over Whatman GF/C filters and washed 4 times with ice-cold 50 mM Tris HCl. Filters were then dried, mixed with scintillant and counted for radioactivity. SK—N-MC or COS7 cells expressing human histamine H4 receptor were used to measure the affinity of binding of other compounds and their ability to displace ^3H-ligand binding by incubating the above-described reaction in the presence of various concentrations of inhibitor or compound to be tested.

Compound | Ki [nM]
Cc1c(-c2nc3c(C)cc(Cl)cc3[nH]2)ccnc1OCCCCC1CCN(C)CC1 [Example 157, 6-Chloro-4-methyl-2-{3-methyl-2-[4-(1-methyl-piperidin-4-yl)-butoxy]-pyridin-4-yl}-1H-benzoimidazole] | 28
Cc1ccc2[nH]c(-c3ccnc(OCCCCC4CCN(C)CC4)c3Cl)nc2c1C [Example 159, 2-{3-Chloro-2-[4-(1-methyl-piperidin-4-yl)-butoxy]-pyridin-4-yl}-4,5-dimethyl-1H-benzoimidazole] | 19
Cc1cc(C)c2nc(-c3cc(OCCCCC4CCN(C)CC4)ncc3Cl)[nH]c2c1 [Example 169, 2-{5-Chloro-2-[4-(1-methyl-piperidin-4-yl)-butoxy]-pyridin-4-yl}-4,6-dimethyl-1H-benzoimidazole] | 1
Cc1cc(C)c2nc(-c3ccnc(OCCCCC4CCN(C)CC4)c3Cl)[nH]c2c1 [Example 162, 2-{3-Chloro-2-[4-(1-methyl-piperidin-4-yl)-butoxy]-pyridin-4-yl}-4,6-dimethyl-1H-benzoimidazole] | 15
CN1CCCN(CCCCOc2cccc(-c3nc4cc(C(C)(C)C)ccc4[nH]3)c2)CC1 [Example 8, 5-tert-Butyl-2-{3-[4-(4-methyl-[1,4]diazepan-1-yl)-butoxy]-phenyl}-1H-benzoimidazole] | 138
Cc1cc2[nH]c(-c3cccc(OCCCCN4CCN(C)CC4)c3)nc2cc1Cl [Example 23, 5-Chloro-6-methyl-2-{3-[4-(4-methyl-piperazin-1-yl)-butoxy]-phenyl}-1H-benzoimidazole] | 103
Cc1c(F)ccc2[nH]c(-c3ccnc(OCCCCN4CCCN(C)CC4)c3)nc12 [Example 143, 5-Fluoro-4-methyl-2-{2-[4-(4-methyl-[1,4]diazepan-1-yl)-butoxy]-pyridin-4-yl}-1H-benzoimidazole] | 6
CN1CCC(CCCCOc2cc(-c3nc4cc(C(C)(C)C)ccc4[nH]3)c(Cl)cn2)CC1 [Example 172, 5-tert-Butyl-2-{5-chloro-2-[4-(1-methyl-piperidin-4-yl)-butoxy]-pyridin-4-yl}-1H-benzoimidazole] | 1
CC(C)(C)c1ccc2[nH]c(-c3ccnc(OCCCCC4CCNCC4)c3)nc2c1 [Example 152, 5-tert-Butyl-2-[2-(4-piperidin-4-yl-butoxy)-pyridin-4-yl]-1H-benzoimidazole] | 117
Cc1c(F)ccc2[nH]c(-c3ccnc(OCCCCN4CCN(C)CC4)c3)nc12 [Example 141, 5-Fluoro-4-methyl-2-{2-[4-(4-methyl-piperazin-1-yl)-butoxy]-pyridin-4-yl}-1H-benzoimidazole] | 60
Cc1ccc2[nH]c(-c3ccnc(OCCCCN4CCN(C)CC4)c3)nc2c1C [Example 140, 4,5-Dimethyl-2-{2-[4-(4-methyl-piperazin-1-yl)-butoxy]-pyridin-4-yl}-1H-benzoimidazole] | 144
Cc1c(Cl)ccc2[nH]c(-c3ccnc(OCCCCC4CCN(C)CC4)c3)nc12 [Example 151, 5-Chloro-4-methyl-2-{2-[4-(1-methyl-piperidin-4-yl)-butoxy]-pyridin-4-yl}-1H-benzoimidazole] | 21
Cc1cccc2[nH]c(-c3cc(OCCCCC4CCN(C)CC4)ncc3Br)nc12 [Example 128, 2-{5-Bromo-2-[4-(1-methyl-piperidin-4-yl)-butoxy]-pyridin-4-yl}-4-methyl-1H-benzoimidazole] | 3
CN1CCC(CCCCOc2cc(-c3nc4cc(Cl)ccc4[nH]3)c(Br)cn2)CC1 [Example 175, 2-{5-Bromo-2-[4-(1-methyl-piperidin-4-yl)-butoxy]-pyridin-4-yl}-5-chloro-1H-benzoimidazole] | 6
Cc1cc(C)c2nc(-c3ccnc(OCCCCC4CCN(C)CC4)c3)[nH]c2c1 [Example 145, 4,6-Dimethyl-2-{2-[4-(1-methyl-piperidin-4-yl)-butoxy]-pyridin-4-yl}-1H-benzoimidazole] | 3
CN1CCC(CCCCOc2cc(-c3nc4cc(C(C)(C)C)ccc4[nH]3)c(Br)cn2)CC1 [Example 134, 2-{5-Bromo-2-[4-(1-methyl-piperidin-4-yl)-butoxy]-pyridin-4-yl}-5-tert-butyl-1H-benzoimidazole] | 117

Results, then the compound that gave them:

Ki [nM] | Compound
49 | CN1CCC(CCCOc2ccc(-c3nc4cc(Cl)ccc4[nH]3)cc2)CC1 [Example 61, 5-Chloro-2-{4-[3-(1-methyl-piperidin-4-yl)-propoxy]-phenyl}-1H-benzoimidazole]
203 | CN1CCN(CCCOc2cccc(-c3nc4ccccc4[nH]3)c2)CC1 [Example 55, 2-{3-[3-(4-Methyl-piperazin-1-yl)-propoxy]-phenyl}-1H-benzoimidazole]
17 | Cc1cc(Cl)cc2[nH]c(-c3ccc(OCCCC4CCN(C)CC4)cc3Cl)nc12 [Example 57, 6-Chloro-2-{2-chloro-4-[3-(1-methyl-piperidin-4-yl)-propoxy]-phenyl}-4-methyl-1H-benzoimidazole]
142 | CN1CCN(CCCOc2ccc(-c3nc4cc(F)c(F)cc4[nH]3)cc2F)CC1 [Example 26, 5,6-Difluoro-2-{3-fluoro-4-[3-(4-methyl-piperazin-1-yl)-propoxy]-phenyl}-1H-benzoimidazole]
633 | Cc1cccc2[nH]c(-c3ccc(OCCN(C)C4CCN(C)CC4)cc3Cl)nc12 [Example 91, {2-[3-Chloro-4-(4-methyl-1H-benzoimidazol-2-yl)-phenoxy]-ethyl}-methyl-(1-methyl-piperidin-4-yl)-amine]
30 | CN1CCN(CCCOc2ccc(-c3nc4cc(C(F)(F)F)ccc4[nH]3)c(Cl)c2)CC1 [Example 54, 2-{2-Chloro-4-[3-(4-methyl-piperazin-1-yl)-propoxy]-phenyl}-5-trifluoromethyl-1H-benzoimidazole]
57 | CN1CCC(CCCOc2ccc(-c3nc4cc(C(C)(C)C)ccc4[nH]3)cc2)CC1 [Example 63, 5-tert-Butyl-2-{4-[3-(1-methyl-piperidin-4-yl)-propoxy]-phenyl}-1H-benzoimidazole]
11 | Cc1cc(OCCCC2CCN(C)CC2)ncc1-c1nc2c(Cl)cccc2[nH]1 [Example 114, 4-Chloro-2-{4-methyl-6-[3-(1-methyl-piperidin-4-yl)-propoxy]-pyridin-3-yl}-1H-benzoimidazole]
7 | Cc1cc(OCCCC2=CCN(C)CC2)ccc1-c1nc2c(C)cc(Cl)cc2[nH]1 [Example 93, 6-Chloro-4-methyl-2-{2-methyl-4-[3-(1-methyl-1,2,3,6-tetrahydro-pyridin-4-yl)-propoxy]-phenyl}-1H-benzoimidazole]
1 | Cc1cc(C)c2nc(-c3ccc(OCCCN4CCCN(C)CC4)cc3Cl)[nH]c2c1 [Example 22, 2-{2-Chloro-4-[3-(4-methyl-[1,4]diazepan-1-yl)-propoxy]-phenyl}-4,6-dimethyl-1H-benzoimidazole]
129 | CN1CCN(CCCOc2ccc(-c3nc4ccccc4[nH]3)cc2Cl)CC1 [Example 47, 2-{3-Chloro-4-[3-(4-methyl-piperazin-1-yl)-propoxy]-phenyl}-1H-benzoimidazole]
6 | Cc1cc(OCCCC2CCN(C)CC2)ncc1-c1nc2c(C)cccc2[nH]1 [Example 110, 4-Methyl-2-{4-methyl-6-[3-(1-methyl-piperidin-4-yl)-propoxy]-pyridin-3-yl}-1H-benzoimidazole]
39 | Cc1cc2[nH]c(-c3ccc(OCCCC4CCN(C)CC4)cc3)nc2cc1Cl [Example 60, 5-Chloro-6-methyl-2-{4-[3-(1-methyl-piperidin-4-yl)-propoxy]-phenyl}-1H-benzoimidazole]
73 | CCN1CCC(CCCOc2ccc(-c3nc4c(C)cc(Cl)cc4[nH]3)c(C)c2)CC1 [Example 90, 6-Chloro-2-{4-[3-(1-ethyl-piperidin-4-yl)-propoxy]-2-methyl-phenyl}-4-methyl-1H-benzoimidazole]
161 | Cc1c(F)ccc2[nH]c(-c3ccc(OCCCC4CCN(C)CC4)cc3CN(C)C)nc12 [Example 83, {2-(5-Fluoro-4-methyl-1H-benzoimidazol-2-yl)-5-[3-(1-methyl-piperidin-4-yl)-propoxy]-benzyl}-dimethyl-amine]
77 | Cc1cc(C)c2nc(-c3ccc(OCCCC4=CCN(C)CC4)nc3)[nH]c2c1 [Example 125, 4,6-Dimethyl-2-{6-[3-(1-methyl-1,2,3,6-tetrahydro-pyridin-4-yl)-propoxy]-pyridin-3-yl}-1H-benzoimidazole]
85 | Cc1c(F)ccc2[nH]c(-c3ccc(OCCCN4CCN(C)CC4)nc3)nc12 [Example 105, 5-Fluoro-4-methyl-2-{6-[3-(4-methyl-piperazin-1-yl)-propoxy]-pyridin-3-yl}-1H-benzoimidazole]
5 | Cc1cc(Cl)cc2[nH]c(-c3cnc(OCCCC4CCN(C)CC4)cc3Cl)nc12 [Example 117, 6-Chloro-2-{4-chloro-6-[3-(1-methyl-piperidin-4-yl)-propoxy]-pyridin-3-yl}-4-methyl-1H-benzoimidazole]
321 | Cc1c(F)ccc2[nH]c(-c3cccc(OCCCOC4CCN(C)CC4)c3)nc12 [Example 102, 6-Fluoro-7-methyl-2-{3-[3-(1-methyl-piperidin-4-yloxy)-propoxy]-phenyl}-1H-benzoimidazole]
46 | Cc1ccc2[nH]c(-c3ccc(OCCCN4CCN(C)CC4)cc3Cl)nc2c1C [Example 1, 2-{2-Chloro-4-[3-(4-methyl-piperazin-1-yl)-propoxy]-phenyl}-4,5-dimethyl-1H-benzoimidazole]

— US7723527B2 (Janssen Pharmaceutica NV, priority 2003, dated 2010)
